Values after ≈ are worked out from the molar mass of the structure shown. Where two headings read alike, the source gives them in different places.
Tests used:
G. lamblia 713-M3 (713M) [1] = test system: G. lamblia 713-M3 (713M); set-up: method as in earlier work; details: MtzR, crude Mtz-triazoles (>85% purity), ref 15 (Miyamoto et al.); read-out: EC50 G. lamblia 713M, Lit.; cited from earlier work
[2] = test system: C. difficile NAP1/027 ATCC BAA-1803; test: MIC broth microdilution, C. difficile NAP1/027 ATCC BAA-1803; assay type: cell-based, Clostridium difficile; details: Clostridioides difficile
Procedure: (§1) All compounds were tested for activity against a set of anaerobic C. difficile bacteria (630 ATCC BAA-1382, NAP1/027 M7404, NAP1/027 ATCC BAA-1803, VPI10463 ATCC 43255, CD26A54_S and CD26A54_R) and representative ESKAPE pathogens S. aureus (MRSA ATCC 43300), E. coli (ATCC 25922), K. pneumoniae (ATCC 700603), A. baumannii (ATCC 19606) and P. aeruginosa (ATCC 27853) using a standard broth microdilution assay. Selected compounds were tested for activity against H. pylori strains (26695, and clinical isolates MtzS 13/25, MtzR 98/285 and MtzR 13/61) using agar plate dilution, and for antimicrobial activity against […] Gram-positive bacterial strains: Enterococcus faecalis (VanA clinical isolate), Enterococcus faecium (MDR VanA ATCC 51559), Streptococcus pneumoniae (MDR ATCC 700677), S. aureus (MRSA ATCC 43300, MRSA clinical isolate, MRSA/DRSA clinical isolate, GISA NARSA NRS 1, GISA NARSA NRS 17, VRSA NARSA VRS1, VRSA NARSA VRS4 and VRSA NARSA VRS10) using broth microdilution. C. difficile strains were grown at 37 °C in a COY anaerobic chamber (5% H2, 10% CO2, 85% N2). H. pylori strains were grown at 37 °C under a microaerobic atmosphere (5% O2, 10% CO2). All facultative anaerobic bacteria were grown at 37 °C with normal atmospheric oxygen levels. All experiments were performed in duplicate with metronidazole, vancomycin, linezolid or colistin as positive controls for relevant strains (see Table 1). Positive growth control of bacteria and DMSO as well as a negative control of only media were included for every plate. Full assay details are provided in the supplementary information.
C. difficile ATCC BAA-1382, ATCC BAA-1803, ATCC 43255 and M7404 heat shocked spore stocks (10 µL) were transferred into the anaerobic chamber and 10 µL streaked onto pre-reduced (at least 2.5 hr in anaerobic chamber) BHIS agar plates supplemented with 0.1% w/v sodium taurocholate (BHIS(TA)). Plates were incubated for 24 hours prior to assay to give colonies of size 1-3mm diameter with characteristic uneven borders.
The minimum inhibition concentration was determined according to the CLSI Methods with modifications in broth and inoculum for C. difficile according to Babakhani et al.^7,8 Briefly, compounds were prepared to 20X final concentration in 100% water, 60% DMSO and 40% water or 60% DMSO and 40% media. The compounds along with standard antibiotics were serially diluted two-fold across the wells of 96-well non-binding surface plates (Non binding surface, Corning). The plates were placed in the anaerobic chamber overnight to reduce. C. difficile bacteria from BHIS(TA) agar plates were cultured anaerobically in BHIS at 37 °C overnight. A sample of culture was then diluted 40-fold in BHIS broth and incubated at 37 °C for approximately 4.5 hrs. The resultant mid-log phase culture (OD600= 0.5-0.6) was diluted to the final concentration of ~1×10^6 CFU/mL, then 50 µL was added to each well of the compound-containing 96-well plates. This gave final cell concentration of 5×10^5 CFU/mL, final volume 100 µL and 3% maximum DMSO concentration. Compound concentration was typically from 64 to 0.03 µg/mL. An antibiotic standard was included on each 96 well plate as well as a positive growth control (no compound) and sterility control (no bacteria). […] MICs were the lowest concentration showing no visible growth.

H. pylori 26695 = test: MIC agar dilution, H. pylori 26695; assay type: cell-based; details: Helicobacter pylori, MtzS, microaerobic
Procedure: as §1
Helicobacter pylori strains, with a range of resistance levels to metronidazole (256 µg/ml, 64 µg/ml, 24 µg/ml, 2 µg/ml, and 0.04 µg/ml), were selected and obtained from Helicobacter Research Laboratory, University of Western Australia. The resistance strength to metronidazole was recorded according to eTest (bioMérieux). H. pylori strain 26695 was used as the control. H. pylori was maintained on the non-selective Columbia blood agar plates (CBA) (Columbia agar base Oxoid) with 5% horse blood and incubated at 37 °C and 10% CO2 for 48 hrs. […] Each of the H. pylori strains were harvested, OD600 calibrated to 0.3, and spotted in triplicate on CBA pre-mixed with the compound. The lowest concentration of antibiotic showing no growth was read as the MIC. The experiment was performed in duplicate.

G. lamblia 713-M3 (713M) [3] = test: ATP-bioluminescence growth and survival assay, metronidazole resistant G. lamblia 713-M3; assay type: cell-based; details: Giardia duodenalis, read-out: EC50 G. lamblia 713M
Procedure: Compounds were tested for antiparasitic activity against E. histolytica (HM1:1MSS strain) and G. lamblia (WB, BRIS/87/HEPU/713 (713), BRIS/83/HEPU/106 (106) and the metronidazole resistant syngeneic line 713-M3 [[15,16]]) using an ATP-bioluminescence based screen for cell growth and survival [[17,18]]. Assay plates were inoculated with trophozoites (5 × 10^3 parasites/well) and incubated in the GasPak™ EZ Anaerobe Gas Generating Pouch Systems (VWR, West Chester, PA) to maintain anaerobic conditions throughout the incubation period. The assays were performed in triplicate using the CellTiter-Glo Luminescent Cell Viability Assay. Metronidazole was used as a positive control.
Trophozoites of E. histolytica strain HM1:IMSS and G. lamblia strains WB, BRIS/87/HEPU/713 (713),^10 BRIS/83/HEPU/106 (106)^11 and the metronidazole resistant syngenic line 713-M3^10,11 were axenically maintained in TYI-S-33 medium supplemented with penicillin (100 U/ml), streptomycin (100 µg/ml).^12 E. histolytica and G. lamblia trophozoites were counted using a particle counter (Beckman Coulter, Fullerton, CA). All experiments were performed using trophozoites harvested during the logarithmic phase of growth.
A three-fold serial dilution was then performed yielding a concentration range 0.25-625 µM. From this dilution plate, 4 µL were transferred into the 96-well screen plates followed by addition of 96 µL of trophozoites (5,000 parasites) to yield a final 8-point concentration range spanning 0.01- 25 µM. Assay plates were incubated for 48 h at 37 °C in the GasPak^TM EZ Anaerobe Gas Generating Pouch Systems (VWR, West Chester, PA) to maintain anaerobic condition throughout the incubation period. The assays were performed in triplicate using the CellTiter-Glo Luminescent Cell Viability Assay.^13

[4] = ATCC 43255 / ATCC BAA-1803, NAP1/027 (footnote c: ATCC 43255), MtzS, 24 h, median of at least n = 4, read-out: MIC C. difficile NAP1/027 (footnote c)
[5] = ATCCBAA1803, 24 hr incubation, read-out: MIC C. difficile NAP1/027 ATCC BAA-1803 24 hr
[6] = ATCCBAA1803, 48 hr incubation, read-out: MIC C. difficile NAP1/027 ATCC BAA-1803 48 hr

## Cc1ncc([N+](=O)[O-])n1CCO [Compound 1, metronidazole]
G. lamblia 713-M3 (713M) [1]
  EC50: 50 µM
[2]; [4]
  MIC: 0.5 µg/mL (≈ 2.92 µM)
[2]; [5]
  MIC: 0.5 µg/mL (≈ 2.92 µM)
[2]; [6]
  MIC: 0.5 µg/mL (≈ 2.92 µM)
H. pylori 26695
  MIC: 8 µg/mL (≈ 46.7 µM)
G. lamblia 713-M3 (713M) [3]
  EC50: 17 µM

## Cc1ncc([N+](=O)[O-])n1CCn1cc(Cn2cccn2)nn1 [Compound 4g, 1-(2-(2-methyl-5-nitro-1H-imidazol-1-yl)ethyl)-4-((1H-pyrazol-1-yl)methyl)-1H-1,2,3-triazole]
[2]; [4]
  MIC: 1 µg/mL (≈ 3.31 µM)
[2]; [5]
  MIC: 1 µg/mL (≈ 3.31 µM)
[2]; [6]
  MIC: 1 to 2 µg/mL (≈ 3.31 to 6.62 µM)
H. pylori 26695
  MIC: 2 to 4 µg/mL (≈ 6.62 to 13.2 µM)

## Cc1ncc([N+](=O)[O-])n1CCn1cc(-c2ccccn2)nn1 [Compound 4h, 1-(2-(2-methyl-5-nitro-1H-imidazol-1-yl)ethyl)-4-(2-pyridinyl)-1H-1,2,3-triazole.xTFA]
G. lamblia 713-M3 (713M) [1]
  EC50: 14 µM
[2]; [4]
  MIC: 0.5 µg/mL
[2]; [5]
  MIC: 0.5 µg/mL
[2]; [6]
  MIC: 0.5 to 1 µg/mL
H. pylori 26695
  MIC: 2 µg/mL
G. lamblia 713-M3 (713M) [3]
  EC50: 0.95 µM

## Cc1ncc([N+](=O)[O-])n1CCn1cc(CN(C)Cc2ccccc2)nn1 [Compound 4m, 1-(2-(2-methyl-5-nitro-1H-imidazol-1-yl)ethyl)-4-(N-benzyl, N-methylaminomethyl)-1H-1,2,3-triazole]
G. lamblia 713-M3 (713M) [1]
  EC50: 9.3 µM
[2]; [4]
  MIC: 1 µg/mL (≈ 2.81 µM)
[2]; [5]
  MIC: 2 µg/mL (≈ 5.63 µM)
[2]; [6]
  MIC: 1 to 2 µg/mL (≈ 2.81 to 5.63 µM)
H. pylori 26695
  MIC: 4 µg/mL (≈ 11.3 µM)
G. lamblia 713-M3 (713M) [3]
  EC50: 2.2 µM

## COC(=O)c1cn(CCn2c([N+](=O)[O-])cnc2C)nn1 [Compound 4f, 1-(2-(2-methyl-5-nitro-1H-imidazol-1-yl)ethyl)-4-(methoxycarbonyl)-1H-1,2,3-triazole]
[2]; [4]
  MIC: 1 µg/mL (≈ 3.57 µM)
[2]; [5]
  MIC: 1 µg/mL (≈ 3.57 µM)
[2]; [6]
  MIC: 1 µg/mL (≈ 3.57 µM)
H. pylori 26695
  MIC: 32 to 64 µg/mL (≈ 114 to 228 µM)
G. lamblia 713-M3 (713M) [3]
  EC50: 3.1 µM

## Cc1ncc([N+](=O)[O-])n1CCn1cc(C(=O)O)nn1 [Compound 4s, 1-(2-(2-methyl-5-nitro-1H-imidazol-1-yl)ethyl)-4-(carboxy)-1H-1,2,3-triazole]
[2]; [4]
  MIC: 64 µg/mL (≈ 240 µM)
[2]; [5]
  MIC: 64 µg/mL (≈ 240 µM)
[2]; [6]
  MIC: 64 µg/mL (≈ 240 µM)
H. pylori 26695
  MIC: > 64 µg/mL
